# According to paper PMC9401498 (Clinical Cancer Research, 2021):
# Entries after “also recorded” stand apart in the source; their conditions may differ.
# Test system: patients with advanced and/or treatment-refractory solid tumors
# Assay: Safety and tolerability: adverse events
# Assay type: in vivo, human
# [1] = TID-fasted (n = 32), All grades
smiles,measurement,setting,value
"O=C(Cc1cccc(OC(F)(F)F)c1)Nc1ccc(CCCCc2nnc(NC(=O)Cc3ccccn3)s2)nn1 [telaglenastat, Telaglenastat]",Patients with dose reductions,17 of 120 patients,14%
same,Patients with dose interruptions,"50 of 120 patients, primarily due to AEs",42%
same,Maximum tolerated dose (MTD),"100–800 mg TID-fasted, 600–1,000 mg BID-fed",not reached; also recorded: not established
same,Abdominal distension (treatment-related AE),"BID-fed (n = 88), All grades",2 (2.3) n (%)
same,Activated partial thromboplastin time prolonged (treatment-related AE),"BID-fed (n = 88), All grades",2 (2.3) n (%)
same,Alanine aminotransferase increased (treatment-related AE),"BID-fed (n = 88), All grades",14 (15.9) n (%)
same,Ammonia increased (treatment-related AE),"BID-fed (n = 88), All grades",2 (2.3) n (%)
same,Anemia (treatment-related AE),"BID-fed (n = 88), All grades",5 (5.7) n (%)
same,Aspartate aminotransferase increased (treatment-related AE),"BID-fed (n = 88), All grades",10 (11.4) n (%)
same,Blood alkaline phosphatase increased (treatment-related AE),"BID-fed (n = 88), All grades",6 (6.8) n (%)
same,Blood bilirubin increased (treatment-related AE),"BID-fed (n = 88), All grades",3 (3.4) n (%)
same,Blood creatinine increased (treatment-related AE),"BID-fed (n = 88), All grades",4 (4.5) n (%)
same,Constipation (treatment-related AE),"BID-fed (n = 88), All grades",3 (3.4) n (%)
same,Decreased appetite (treatment-related AE),"BID-fed (n = 88), All grades",8 (9.1) n (%)
same,Diarrhea (treatment-related AE),"BID-fed (n = 88), All grades",2 (2.3) n (%)
same,Dysgeusia (treatment-related AE),"BID-fed (n = 88), All grades",2 (2.3) n (%)
same,Dyspepsia (treatment-related AE),"BID-fed (n = 88), All grades",2 (2.3) n (%)
same,Fatigue (treatment-related AE),"BID-fed (n = 88), All grades",21 (23.9) n (%)
same,Gastroesophageal reflux disease (treatment-related AE),"BID-fed (n = 88), All grades",2 (2.3) n (%)
same,Hypomagnesemia (treatment-related AE),"BID-fed (n = 88), All grades",4 (4.5) n (%)
same,Hyponatremia (treatment-related AE),"BID-fed (n = 88), All grades",2 (2.3) n (%)
same,Nausea (treatment-related AE),"BID-fed (n = 88), All grades",21 (23.9) n (%)
same,Neuropathy peripheral (treatment-related AE),"BID-fed (n = 88), All grades",2 (2.3) n (%)
same,Patients with ≥1 treatment-emergent AE,"BID-fed (n = 88), All grades",84 (95.5) n (%)
same,Patients with ≥1 treatment-related AE,"BID-fed (n = 88), All grades",64 (72.7) n (%)
same,Photophobia (treatment-related AE),"BID-fed (n = 88), All grades",12 (13.6) n (%)
same,Photopsia (treatment-related AE),"BID-fed (n = 88), All grades",2 (2.3) n (%)
same,Thrombocytopenia (treatment-related AE),"BID-fed (n = 88), All grades",4 (4.5) n (%)
same,Vision blurred (treatment-related AE),"BID-fed (n = 88), All grades",3 (3.4) n (%)
same,Vomiting (treatment-related AE),"BID-fed (n = 88), All grades",5 (5.7) n (%)
same,Weight decreased (treatment-related AE),"BID-fed (n = 88), All grades",3 (3.4) n (%)
same,γ-Glutamyltransferase increased (treatment-related AE),"BID-fed (n = 88), All grades",7 (8.0) n (%)
same,Abdominal distension (treatment-related AE),"BID-fed (n = 88), Grade 3",0 n (%)
same,Activated partial thromboplastin time prolonged (treatment-related AE),"BID-fed (n = 88), Grade 3",0 n (%)
same,Alanine aminotransferase increased (treatment-related AE),"BID-fed (n = 88), Grade 3",2 (2.3) n (%)
same,Ammonia increased (treatment-related AE),"BID-fed (n = 88), Grade 3",0 n (%)
same,Anemia (treatment-related AE),"BID-fed (n = 88), Grade 3",1 (1.1) n (%)
same,Aspartate aminotransferase increased (treatment-related AE),"BID-fed (n = 88), Grade 3",1 (1.1) n (%)
same,Blood alkaline phosphatase increased (treatment-related AE),"BID-fed (n = 88), Grade 3",1 (1.1) n (%)
same,Blood bilirubin increased (treatment-related AE),"BID-fed (n = 88), Grade 3",0 n (%)
same,Blood creatinine increased (treatment-related AE),"BID-fed (n = 88), Grade 3",0 n (%)
same,Constipation (treatment-related AE),"BID-fed (n = 88), Grade 3",0 n (%)
same,Decreased appetite (treatment-related AE),"BID-fed (n = 88), Grade 3",0 n (%)
same,Diarrhea (treatment-related AE),"BID-fed (n = 88), Grade 3",0 n (%)
same,Dysgeusia (treatment-related AE),"BID-fed (n = 88), Grade 3",0 n (%)
same,Dyspepsia (treatment-related AE),"BID-fed (n = 88), Grade 3",0 n (%)
same,Fatigue (treatment-related AE),"BID-fed (n = 88), Grade 3",0 n (%)
same,Gastroesophageal reflux disease (treatment-related AE),"BID-fed (n = 88), Grade 3",0 n (%)
same,Hypomagnesemia (treatment-related AE),"BID-fed (n = 88), Grade 3",0 n (%)
same,Hyponatremia (treatment-related AE),"BID-fed (n = 88), Grade 3",0 n (%)
same,Nausea (treatment-related AE),"BID-fed (n = 88), Grade 3",0 n (%)
same,Neuropathy peripheral (treatment-related AE),"BID-fed (n = 88), Grade 3",0 n (%)
same,Patients with ≥1 treatment-emergent AE,"BID-fed (n = 88), Grade 3",28 (31.8) n (%)
same,Patients with ≥1 treatment-related AE,"BID-fed (n = 88), Grade 3",3 (3.4) n (%)
same,Photophobia (treatment-related AE),"BID-fed (n = 88), Grade 3",0 n (%)
same,Photopsia (treatment-related AE),"BID-fed (n = 88), Grade 3",0 n (%)
same,Thrombocytopenia (treatment-related AE),"BID-fed (n = 88), Grade 3",0 n (%)
same,Vision blurred (treatment-related AE),"BID-fed (n = 88), Grade 3",0 n (%)
same,Vomiting (treatment-related AE),"BID-fed (n = 88), Grade 3",0 n (%)
same,Weight decreased (treatment-related AE),"BID-fed (n = 88), Grade 3",0 n (%)
same,γ-Glutamyltransferase increased (treatment-related AE),"BID-fed (n = 88), Grade 3",2 (2.3) n (%)
same,Abdominal distension (treatment-related AE),"BID-fed (n = 88), Grade 4",0 n (%)
same,Activated partial thromboplastin time prolonged (treatment-related AE),"BID-fed (n = 88), Grade 4",0 n (%)
same,Alanine aminotransferase increased (treatment-related AE),"BID-fed (n = 88), Grade 4",0 n (%)
same,Ammonia increased (treatment-related AE),"BID-fed (n = 88), Grade 4",0 n (%)
same,Anemia (treatment-related AE),"BID-fed (n = 88), Grade 4",0 n (%)
same,Aspartate aminotransferase increased (treatment-related AE),"BID-fed (n = 88), Grade 4",0 n (%)
same,Blood alkaline phosphatase increased (treatment-related AE),"BID-fed (n = 88), Grade 4",0 n (%)
same,Blood bilirubin increased (treatment-related AE),"BID-fed (n = 88), Grade 4",0 n (%)
same,Blood creatinine increased (treatment-related AE),"BID-fed (n = 88), Grade 4",0 n (%)
same,Constipation (treatment-related AE),"BID-fed (n = 88), Grade 4",0 n (%)
same,Decreased appetite (treatment-related AE),"BID-fed (n = 88), Grade 4",0 n (%)
same,Diarrhea (treatment-related AE),"BID-fed (n = 88), Grade 4",0 n (%)
same,Dysgeusia (treatment-related AE),"BID-fed (n = 88), Grade 4",0 n (%)
same,Dyspepsia (treatment-related AE),"BID-fed (n = 88), Grade 4",0 n (%)
same,Fatigue (treatment-related AE),"BID-fed (n = 88), Grade 4",0 n (%)
same,Gastroesophageal reflux disease (treatment-related AE),"BID-fed (n = 88), Grade 4",0 n (%)
same,Hypomagnesemia (treatment-related AE),"BID-fed (n = 88), Grade 4",0 n (%)
same,Hyponatremia (treatment-related AE),"BID-fed (n = 88), Grade 4",0 n (%)
same,Nausea (treatment-related AE),"BID-fed (n = 88), Grade 4",0 n (%)
same,Neuropathy peripheral (treatment-related AE),"BID-fed (n = 88), Grade 4",0 n (%)
same,Patients with ≥1 treatment-emergent AE,"BID-fed (n = 88), Grade 4",5 (5.7) n (%)
same,Patients with ≥1 treatment-related AE,"BID-fed (n = 88), Grade 4",0 n (%)
same,Photophobia (treatment-related AE),"BID-fed (n = 88), Grade 4",0 n (%)
same,Photopsia (treatment-related AE),"BID-fed (n = 88), Grade 4",0 n (%)
same,Thrombocytopenia (treatment-related AE),"BID-fed (n = 88), Grade 4",0 n (%)
same,Vision blurred (treatment-related AE),"BID-fed (n = 88), Grade 4",0 n (%)
same,Vomiting (treatment-related AE),"BID-fed (n = 88), Grade 4",0 n (%)
same,Weight decreased (treatment-related AE),"BID-fed (n = 88), Grade 4",0 n (%)
same,γ-Glutamyltransferase increased (treatment-related AE),"BID-fed (n = 88), Grade 4",0 n (%)
same,Grade 3/4 ALT increase,BID-fed schedule,2%
same,Grade 3/4 AST increase,BID-fed schedule,1%
same,Incidence of treatment-related grade 3/4 AEs,"BID-fed, 3/88",3%
same,Abdominal distension (treatment-related AE),[1],0 n (%)
same,Activated partial thromboplastin time prolonged (treatment-related AE),[1],0 n (%)
